Laboratory results from ChEMBL document CHEMBL6103588, “Promising thiazolidinedione-thiazole based multi-target and neuroprotective hybrids for Alzheimer's disease: Design, synthesis, in-vitro, in-vivo and in-silico studies” (Eur J Med Chem, 2025).
Active and inactive are the calls of the source. The calls are words filed in the database; no cut-off is given here.

Assays:
[1] = target: Beta-secretase 1 (Homo sapiens, UniProt P56817); test: Inhibition of BACE-1 (unknown origin) 667-676- (2, 4-dinitrophenyl) Lys-Arg-Arg amide trifluoroacetate as substrate preincubated for 15 mins followed by substrate addition and measured after 2 hrs by fluorescence spectrometric analysis; conditions: read-out: IC50
[2] = Acute toxicity in male Swiss albino mouse assessed as survival time at 450 mg/kg BW, po administered as single dose via gavage by up-and-down method; type: organism-based; conditions: in vivo
[3] = target: Prostaglandin G/H synthase 1 (Homo sapiens, UniProt P23219); conditions: read-out: IC50
[4] = Acute toxicity in male Swiss albino mouse assessed as piloerection at 450 mg/kg BW, po administered as single dose via gavage measured after 1 hrs by up-and-down method; type: organism-based; conditions: in vivo
[5] = Acute toxicity in male Swiss albino mouse assessed as survival time at 250 mg/kg BW, po administered as single dose via gavage by up-and-down method; type: organism-based; conditions: in vivo
[6] = Acute toxicity in male Swiss albino mouse assessed as mortality rate at 1500 mg/kg BW, po administered as single dose via gavage measured after 48 hrs by up-and-down method relative to control; type: organism-based; conditions: in vivo
[7] = Neurotoxicity against human SH-SY5Y cells assessed as reduction in cell viability at 100 uM incubated for 24 hrs by MTT assay relative to control; type: toxicity, cell-based
[8] = Acute toxicity in male Swiss albino mouse assessed as mortality treated po single dose via gavage measured after 48 hrs by up-and-down method; type: organism-based; conditions: in vivo
[9] = Acute toxicity in male Swiss albino mouse assessed as ataxia at 1200 mg/kg BW, po administered as single dose via gavage measured after 20 mins by up-and-down method; type: organism-based; conditions: in vivo
[10] = Acute toxicity in male Swiss albino mouse assessed as mortality rate at 450 to 50 mg/kg BW, po administered as single dose via gavage measured after 48 hrs by up-and-down method relative to control; type: organism-based; conditions: in vivo, at 50 to 450 mg/kg, dose 450-50 mg/kg
[11] = Acute toxicity in male Swiss albino mouse assessed as mortality rate at 650 mg/kg BW, po administered as single dose via gavage measured after 48 hrs by up-and-down method relative to control; type: organism-based; conditions: in vivo
[12] = Acute toxicity in male Swiss albino mouse assessed as lethargy at 1200 mg/kg BW, po administered as single dose via gavage measured after 20 mins by up-and-down method; type: organism-based; conditions: in vivo
[13] = Acute toxicity in male Swiss albino mouse assessed as signs of pain at 1500 mg/kg BW, po administered as single dose via gavage measured after 48 hrs by up-and-down method; type: organism-based; conditions: in vivo
[14] = in vitro; conditions: PAMPA, pH 7.4
Description: Permeability of compound in PBS at pH 7.4 incubated for 20 hrs by PAMPA-BBB assay

[15] = target: Acetylcholinesterase (Electrophorus electricus, UniProt O42275); test: Inhibition of Electric eel AChE using acetylthiocholine iodide as substrate pre-incubated for 10 mins followed by substrate addition and measured after 15 mins by DTNB reagent based Ellman's method; conditions: read-out: IC50
[16] = Acute toxicity in male Swiss albino mouse assessed as ataxia at 450 mg/kg BW, po administered as single dose via gavage measured after 1 hrs by up-and-down method; type: organism-based; conditions: in vivo
[17] = Acute toxicity in male Swiss albino mouse assessed as survival time at 1200 mg/kg BW, po administered as single dose via gavage by up-and-down method; type: organism-based; conditions: in vivo
[18] = Acute toxicity in male Swiss albino mouse assessed as signs of discomfort at 1200 mg/kg BW, po administered as single dose via gavage measured after 20 mins by up-and-down method; type: organism-based; conditions: in vivo
[19] = Neurotoxicity against human SH-SY5Y cells assessed as reduction in cell viability at 100 uM incubated for 24 hrs by MTT assay; type: toxicity, cell-based
[20] = target: T1, Prostaglandin G/H synthase 2 (Homo sapiens, UniProt P35354)
T1 sequence (P35354 whole entry): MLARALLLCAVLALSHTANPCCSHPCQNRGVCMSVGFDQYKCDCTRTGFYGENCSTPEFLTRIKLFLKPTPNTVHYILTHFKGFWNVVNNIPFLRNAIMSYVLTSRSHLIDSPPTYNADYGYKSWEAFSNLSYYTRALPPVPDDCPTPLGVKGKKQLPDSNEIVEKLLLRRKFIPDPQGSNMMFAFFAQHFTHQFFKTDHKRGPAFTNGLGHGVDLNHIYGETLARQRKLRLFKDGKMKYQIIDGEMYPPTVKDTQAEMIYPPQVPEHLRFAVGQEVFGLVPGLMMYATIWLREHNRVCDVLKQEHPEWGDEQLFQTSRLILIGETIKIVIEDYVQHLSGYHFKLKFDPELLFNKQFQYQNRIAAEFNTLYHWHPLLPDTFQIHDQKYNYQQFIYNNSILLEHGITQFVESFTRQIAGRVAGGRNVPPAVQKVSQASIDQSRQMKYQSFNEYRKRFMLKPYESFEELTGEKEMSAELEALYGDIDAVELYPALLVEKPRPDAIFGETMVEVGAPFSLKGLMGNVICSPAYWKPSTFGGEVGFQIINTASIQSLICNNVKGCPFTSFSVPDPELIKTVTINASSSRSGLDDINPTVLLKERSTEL
Description: Inhibition of COX-2 (unknown origin) using arachidonic acid as substrate and in presence of TMPD preincubated for 5 mins followed by substrate addition and measured after 5 mins by UV visible spectrophotometric analysis

[21] = target: Acetylcholinesterase (Electrophorus electricus) (UniProt O42275); test: Mixed-type inhibition of electric eel AChE using acetylthiocholine iodide as substrate assessed as decrease in Vmax […] at 0.036 to 0.144 uM preincubated for 15 mins by Lineweaver-burk plot analysis; conditions: dose 0.036-0.144 µM
[22] = test system: Mus musculus; test: Antioxidant activity against scopolamine-induced Albino mouse assessed as increase in GSH-Px level in brain at 5 mg/kg measured after 24 hrs; type: functional
[23] = test system: Mus musculus; test: Antioxidant activity against scopolamine-induced Albino mouse assessed as increase in SOD level in brain at 5 mg/kg measured after 24 hrs; type: functional
[24] = Acute toxicity in male Swiss albino mouse assessed as survival time at 650 mg/kg BW, po administered as single dose via gavage by up-and-down method; type: organism-based; conditions: in vivo
[25] = test system: Mus musculus; test: Antioxidant activity against scopolamine-induced Albino mouse assessed as increase in catalase activity in brain at 5 mg/kg measured after 24 hrs; type: functional, organism-based
[26] = Lipophilicity, logP of compound; type: physicochemical; conditions: octanol/water
[27] = Acute toxicity in male Swiss albino mouse assessed as lethargy at 450 mg/kg BW, po administered as single dose via gavage measured after 1 hrs by up-and-down method; type: organism-based; conditions: in vivo

Chain of Prostaglandin G/H synthase 1 (P23219 whole entry): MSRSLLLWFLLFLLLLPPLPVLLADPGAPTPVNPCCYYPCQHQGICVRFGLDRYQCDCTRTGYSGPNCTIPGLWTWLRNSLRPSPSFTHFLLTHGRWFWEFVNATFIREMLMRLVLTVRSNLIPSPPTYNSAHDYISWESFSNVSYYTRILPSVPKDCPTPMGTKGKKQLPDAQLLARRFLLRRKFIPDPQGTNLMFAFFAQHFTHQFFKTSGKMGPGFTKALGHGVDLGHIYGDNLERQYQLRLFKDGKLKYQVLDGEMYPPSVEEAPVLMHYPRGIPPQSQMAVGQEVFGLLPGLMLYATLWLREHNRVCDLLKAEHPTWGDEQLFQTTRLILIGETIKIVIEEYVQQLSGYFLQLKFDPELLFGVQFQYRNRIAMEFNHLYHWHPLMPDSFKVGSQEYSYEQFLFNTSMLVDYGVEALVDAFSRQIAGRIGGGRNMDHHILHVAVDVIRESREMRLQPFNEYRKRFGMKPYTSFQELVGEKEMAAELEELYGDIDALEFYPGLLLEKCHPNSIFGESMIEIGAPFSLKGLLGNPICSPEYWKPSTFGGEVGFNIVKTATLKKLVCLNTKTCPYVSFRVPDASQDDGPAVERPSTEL
Chain of Beta-secretase 1 (P56817 whole entry): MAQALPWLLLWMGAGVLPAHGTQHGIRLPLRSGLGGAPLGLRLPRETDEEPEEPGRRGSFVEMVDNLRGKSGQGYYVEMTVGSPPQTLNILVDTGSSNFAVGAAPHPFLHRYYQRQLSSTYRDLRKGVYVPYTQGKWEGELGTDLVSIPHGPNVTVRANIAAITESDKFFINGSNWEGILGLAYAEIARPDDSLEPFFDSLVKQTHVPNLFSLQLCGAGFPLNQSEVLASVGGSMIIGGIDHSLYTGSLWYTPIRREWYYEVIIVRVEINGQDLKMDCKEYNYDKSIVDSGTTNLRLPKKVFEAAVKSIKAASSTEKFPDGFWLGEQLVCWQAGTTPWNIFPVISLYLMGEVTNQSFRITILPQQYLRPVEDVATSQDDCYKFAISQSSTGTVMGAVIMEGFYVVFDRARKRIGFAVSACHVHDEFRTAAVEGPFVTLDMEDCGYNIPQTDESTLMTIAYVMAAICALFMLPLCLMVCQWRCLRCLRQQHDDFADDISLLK
Chain of Acetylcholinesterase (O42275 whole entry): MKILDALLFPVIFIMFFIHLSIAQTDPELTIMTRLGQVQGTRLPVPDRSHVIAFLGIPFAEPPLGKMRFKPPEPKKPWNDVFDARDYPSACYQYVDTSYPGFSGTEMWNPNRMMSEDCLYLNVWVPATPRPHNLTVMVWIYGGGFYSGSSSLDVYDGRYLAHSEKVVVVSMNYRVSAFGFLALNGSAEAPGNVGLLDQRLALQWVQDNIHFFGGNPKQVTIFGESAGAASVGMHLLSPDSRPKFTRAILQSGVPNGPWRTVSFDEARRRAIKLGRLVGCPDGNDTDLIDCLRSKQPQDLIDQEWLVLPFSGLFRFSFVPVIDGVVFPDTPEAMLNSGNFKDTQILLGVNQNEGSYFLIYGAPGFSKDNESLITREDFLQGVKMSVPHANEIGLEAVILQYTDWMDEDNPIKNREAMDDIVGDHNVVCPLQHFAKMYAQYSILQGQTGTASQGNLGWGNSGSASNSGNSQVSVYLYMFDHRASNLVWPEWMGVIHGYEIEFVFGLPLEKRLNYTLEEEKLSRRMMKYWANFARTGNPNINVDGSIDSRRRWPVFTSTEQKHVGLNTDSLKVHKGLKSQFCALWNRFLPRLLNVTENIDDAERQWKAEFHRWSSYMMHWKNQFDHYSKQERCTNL
Chain of Acetylcholinesterase (Electrophorus electricus) (O42275 24-633 limits assumed): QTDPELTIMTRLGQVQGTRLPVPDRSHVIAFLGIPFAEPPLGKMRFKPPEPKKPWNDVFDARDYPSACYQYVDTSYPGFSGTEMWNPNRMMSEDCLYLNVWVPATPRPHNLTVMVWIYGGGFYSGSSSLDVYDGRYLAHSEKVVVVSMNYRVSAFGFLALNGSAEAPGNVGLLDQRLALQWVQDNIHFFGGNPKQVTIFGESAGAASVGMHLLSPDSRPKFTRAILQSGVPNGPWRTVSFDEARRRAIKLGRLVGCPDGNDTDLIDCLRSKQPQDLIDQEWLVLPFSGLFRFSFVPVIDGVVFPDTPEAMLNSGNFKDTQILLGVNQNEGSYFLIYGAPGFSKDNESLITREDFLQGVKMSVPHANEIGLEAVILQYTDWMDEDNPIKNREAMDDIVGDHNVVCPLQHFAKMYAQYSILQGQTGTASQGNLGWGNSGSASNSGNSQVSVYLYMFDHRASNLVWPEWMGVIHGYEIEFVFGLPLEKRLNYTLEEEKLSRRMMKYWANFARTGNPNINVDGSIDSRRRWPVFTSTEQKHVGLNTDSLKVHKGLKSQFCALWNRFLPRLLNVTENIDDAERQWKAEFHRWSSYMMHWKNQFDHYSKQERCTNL

COc1cc(/C=C/C(=O)Nc2ccc3sc(NCN4C(=O)CSC4=O)nc3c2)ccc1O
IC50 [1]: 2420 nM | Time [2]: > 48 h | IC50 [3]: 60400 nM | Activity [4]: Toxic | Time [5]: > 48 h | mortality at 48 h [6]: 100% | Activity [7]: 76% | LD100 ([8]; po, 48 h): 1500 mg/kg | LD50 at 48 h ([8]; male, Swiss albino): 800 mg/kg | Activity [9]: Toxic | mortality at 48 h [10]: 0% | mortality at 48 h [11]: 28.6% | Activity [12]: Toxic | Activity [13]: Toxic | Papp at 20 h [14]: 5.7 ×10⁻⁶ cm/s | IC50 [15]: 72 nM | Activity [16]: Toxic | Time [17]: 40 min | Activity [18]: Toxic | Activity [19]: Toxic | IC50 [20]: 187 nM | inhibition [21]: Active; Inhibition Of Free Enzyme And Enzyme-Substrate Complex. | Activity [22]: 230 U/ml | Activity [23]: 95.03 U/ml | Time [24]: 18 h | Activity [25]: Active | logP [26]: 3.34 | Activity [27]: Toxic
